The record followed here is patent publication US11572540B2, “Method for inducing oligodendrocyte precursor cells from OCT4-induced human somatic cells through direct reprogramming” (Stemlab Inc., priority 2015, dated 2023).

For this experiment, the system named is Oct4-introduced Sox10::eGFP fibroblasts. The experiment in a line: FACS analysis of Sox10::eGFP reporter expression after low molecular weight substance treatment. The format is cell-based, human. As to conditions: 10 μM forskolin added to ATVP medium. From the text: The inventors have established conditions capable of inducing neural stem cells from mouse cells only with a low molecular weight substance without gene introduction (KR 10-1357402). Accordingly, to establish new conditions capable of inducing human somatic cells into OPCs on the basis of the low molecular weight substance that had been established in the previous study, a low molecular weight substance was selected using a Sox10 reporter system (Sox10::eGFP), which is a gene known to be important in development of oligodendrocytes (FIG. 1). When Oct4 gene-introduced cells were cultured in a reprogramming medium (RM: DMEM with high Glucose+5% knock out serum replacement (KSR)+1% penicillin/streptomycin+1% non-essential amino acids+20 ng/ml basic FGF (bFGF)+20 ng/ml human recombinant platelet derived growth factor (PDGF)+50 μg/ml ascorbic acid), one week after induction, it was confirmed that a cell length was shorter and a cell size was smaller through mesenchymal to epithelial transition (MET), thereby forming an epithelial-like colony. […]
In general terms: A flow cytometer gives signals particle by particle.

Consider `C=C[C@@]1(C)CC(=O)[C@]2(O)[C@@]3(C)[C@@H](O)CCC(C)(C)[C@@H]3[C@H](O)[C@H](OC(C)=O)[C@@]2(C)O1` [forskolin], for which the “Sox10::eGFP expression (GFP+ distribution, FACS)” value stood at 3.31%.
